Assays:
Assay type in all cases: cell-based, human
[1] = system: PBMCs from DLBCL patients; assay: γ-IFN release ELISPOT, PBMCs of DLBCL patients after short-term culture with peptides; design: γ-IFN response to peptides: unit not given here; details: for γ-IFN response to peptides: triplicate ELISPOT; for TH γ-IFN response to peptides at time of diagnosis and after one year: DLBCL patients (FIG. 5)
[2] = system: PBMCs from healthy donors; assay: γ-IFN release ELISPOT, PBMCs of healthy donors after short-term culture with peptides; details: triplicate ELISPOT, ± SD
[3] = system: OCI-Ly3 (DLBCL) cell line; assay: 51Cr release cytolytic assay of peptide-specific CTL/TH cell lines; details: PASD1-positive OCI-Ly3; 18 h 51Cr release
Procedure: (§1) A conventional ^51Cr-labelling release assay was used to investigate the ability of CTL and TH cell lines generated from DLBCL patients to lyse PASD1-positive tumour target cells. The target cell lines, consisting of the OCI-Ly3, SUDHL-6, KM-H2 and Thiel, were radiolabelled with 100 μCi ^51Cr for 90 minutes. […] The incubation period of the TH with the target cells was increased to 18 hours. Maximum ^51Cr release was determined following the addition of 10% Triton-X to the radiolabelled target cells and spontaneous release was assessed by adding RPMI1640/FCS to the target cells. The supernatant was harvested and counted in a gamma-counter (Beckmann, Heidelberg, Germany).

[4] = system: SUDHL-6 (DLBCL) cell line; assay: as above; details: PASD1-negative SUDHL-6; 18 h 51Cr release
Procedure: as §1

[5] = system: Thiel (myeloma) cell line; assay: as above; details: PASD1-positive Thiel; 18 h 51Cr release
Procedure: as §1

[6] = Patient 1, De novo DLBCL, DRB1-0102, group Significant response, ± SD
[7] = Patient 2, De novo DLBCL, DRB1-0101, group Significant response, ± SD
[8] = Patient 3, De novo DLBCL, DRB1-0301, group Significant response, ± SD
[9] = Patient 4, De novo DLBCL, DRB1-0102, group Significant response, ± SD
[10] = Patient 8, De novo DLBCL, DRB1-1501, group Significant response, ± SD
[11] = Patient 9, De novo DLBCL, DRB1-0301, group Significant response, ± SD
[12] = Patient 10, De novo DLBCL, DRB1-0101, group No significant response, ± SD
[13] = Patient 12, De novo DLBCL, DRB1-0401, group Significant response, ± SD
[14] = Patient 15, De novo DLBCL, DRB1-1301, group No significant response, ± SD
[15] = Patient 17, De novo DLBCL, DRB1-0301, group No significant response, ± SD
[16] = Patient 18, De novo DLBCL, DRB1-0401, group No significant response, ± SD
[17] = Patient 19, De novo DLBCL, DRB1-1104, group No significant response, ± SD
[18] = Patient 20, De novo DLBCL, DRB1-1303, group No significant response, ± SD
[19] = Patient 21, De novo DLBCL, DRB1-0301, group No significant response, ± SD
[20] = Patient 24, De novo DLBCL, DRB1-1301, group Significant response, ± SD
[21] = Patient 28, Trans DLBCL, DRB1-0701, group No significant response, ± SD
[22] = Patient 37, Trans DLBCL, DRB1-0103, group Significant response, ± SD
[23] = Patient 48, T-cell rich DLBCL, DRB1-0301, group Significant response, ± SD
[24] = Patient 61, De novo DLBCL, DRB1-0401, group No significant response, ± SD
[25] = PBMCs from a DLBCL patient stimulated in culture with PASD1(6) or PASD1(7) peptides, +/− SD

Substance | γ-IFN response to peptides [1, 6] | γ-IFN response to peptides [1, 7] | γ-IFN response to peptides [1, 8] | γ-IFN response to peptides [1, 9] | γ-IFN response to peptides [1, 10] | γ-IFN response to peptides [1, 11] | γ-IFN response to peptides [1, 12] | γ-IFN response to peptides [1, 13] | γ-IFN response to peptides [1, 14] | γ-IFN response to peptides [1, 15] | γ-IFN response to peptides [1, 16] | γ-IFN response to peptides [1, 17] | γ-IFN response to peptides [1, 18] | γ-IFN response to peptides [1, 19] | γ-IFN response to peptides [1, 20] | γ-IFN response to peptides [1, 21] | γ-IFN response to peptides [1, 22] | γ-IFN response to peptides [1, 23] | γ-IFN response to peptides [1, 24] | γ-IFN response to peptides ([2]; Healthy donor HD 1, DRB1-0102) | further results
AENISSLLGHLPAEIVGKKL (listed as Homo sapiens) [PASD1(8)] | 32 ± 3 | 36 ± 6 | 18 ± 2 | 28 ± 4 | 20 ± 4 | 12 ± 3 | 36 ± 4 | 24 ± 4 | 10 ± 1 | 14 ± 2 | 20 ± 2 | 24 ± 2 | 18 ± 2 | 14 ± 2 | 28 ± 4 | 16 ± 2 | 16 ± 2 | 40 ± 6 | 12 ± 2 | 18 ± 2 | γ-IFN response to peptides ([2]; Healthy donor HD 2, DRB1-0401): 10 ± 2; γ-IFN response to peptides ([2]; Healthy donor HD 3, DRB1-0401): 6 ± 2; γ-IFN response to peptides ([2]; Healthy donor HD 4, DRB1-0301): 10 ± 2; γ-IFN response to peptides ([2]; Healthy donor HD 5, DRB1-0301): 10 ± 2
DESFRKYTAFTIPSMNNETP (Human immunodeficiency virus type 1) [HIV-1, control irrelevant peptide from HIV-1 reverse transcriptase used with the TH peptides, reference compound] | 2 ± 1 | 16 ± 2 | 8 ± 2 | 14 ± 2 | 12 ± 4 | 4 ± 2 | 16 ± 4 | 12 ± 2 | 14 ± 4 | 10 ± 2 | 14 ± 2 | 12 ± 2 | 10 ± 2 | 10 ± 2 | 8 ± 2 | 6 ± 2 | 16 ± 2 | 12 ± 2 | 12 ± 2 | 8 ± 2 | γ-IFN response to peptides ([2]; Healthy donor HD 2, DRB1-0401): 6 ± 2; γ-IFN response to peptides ([2]; Healthy donor HD 3, DRB1-0401): 1 ± 1; γ-IFN response to peptides ([2]; Healthy donor HD 4, DRB1-0301): 10 ± 2; γ-IFN response to peptides ([2]; Healthy donor HD 5, DRB1-0301): 8 ± 2
DGFMITLSTDGVIICVAENI (listed as Homo sapiens) [PASD1(7)] | 28 ± 4 | 46 ± 8 | 26 ± 4 | 44 ± 4 | 18 ± 2 | 18 ± 2 | 26 ± 2 | 36 ± 4 | 32 ± 2 | 18 ± 4 | 26 ± 2 | 26 ± 2 | 14 ± 2 | 10 ± 2 | 38 ± 4 | 22 ± 6 | 32 ± 6 | 56 ± 6 | 10 ± 4 | 20 ± 2 | TH γ-IFN response to peptides at time of diagnosis and after one year ([1]; short term culture, p<0.05): significant; γ-IFN response to peptides [1, 25]: 26 +/− 2; immunogenicity among patients studied ([1]; TH γ-IFN response, DLBCL patients): immunogenic in the majority of patients; γ-IFN response to the PASD1(1) CTL peptide elicited by culture with the peptide ([1]; cells cultured 8-10 days with PASD1(6) or PASD1(7), Table 4): comparable; order of immunogenicity for eliciting TH cell responses ([1]; from γ-IFN release assay, order PASD1(6), PASD1(7), PASD1(10), PASD1(9), PASD1(8)): most immunogenic; γ-IFN response to peptides ([2]; Healthy donor HD 2, DRB1-0401): 8 ± 2; γ-IFN response to peptides ([2]; Healthy donor HD 3, DRB1-0401): 10 ± 2; γ-IFN response to peptides ([2]; Healthy donor HD 4, DRB1-0301): 20 ± 2; γ-IFN response to peptides ([2]; Healthy donor HD 5, DRB1-0301): 22 ± 2; lysis by TH cell lines specific for the peptide [3]: Significant dose dependent lysis; lysis by TH cell lines specific for the peptide [4]: no significant lysis; lysis by TH cell lines specific for the peptide [5]: Significant dose dependent lysis
ILKEPVHGV [HIV peptide, reference compound] | – | – | – | – | – | – | – | – | – | – | – | – | – | – | – | – | – | – | – | – | TH γ-IFN response to peptides at time of diagnosis and after one year ([1]; short term culture, p<0.05): No significant response; γ-IFN response to CTL peptides at time of diagnosis and after one year ([1]; HLA-A*0201-positive DLBCL patients (12 and 48, FIG. 2a), short term culture, p<0.05): No significant response
NHPVRFLQAQPIVPVQRAAE (listed as Homo sapiens) [PASD1(10)] | 40 ± 2 | 40 ± 4 | 32 ± 2 | 32 ± 4 | 18 ± 4 | 14 ± 2 | 32 ± 2 | 32 ± 4 | 18 ± 4 | 10 ± 4 | 22 ± 2 | 12 ± 2 | 16 ± 2 | 18 ± 2 | 16 ± 4 | 10 ± 2 | 34 ± 2 | 38 ± 2 | 6 ± 2 | 10 ± 2 | γ-IFN response to peptides ([2]; Healthy donor HD 2, DRB1-0401): 4 ± 2; γ-IFN response to peptides ([2]; Healthy donor HD 3, DRB1-0401): 2 ± 1; γ-IFN response to peptides ([2]; Healthy donor HD 4, DRB1-0301): 18 ± 2; γ-IFN response to peptides ([2]; Healthy donor HD 5, DRB1-0301): 16 ± 2
VGNVCILRTQLLQQLYTSKA (listed as Homo sapiens) [PASD1(9)] | 30 ± 2 | 24 ± 2 | 24 ± 2 | 18 ± 2 | 18 ± 2 | 20 ± 2 | 10 ± 2 | 20 ± 4 | 8 ± 2 | 8 ± 2 | 24 ± 2 | 18 ± 2 | 8 ± 2 | 16 ± 2 | 26 ± 4 | 22 ± 4 | 28 ± 2 | 26 ± 2 | 16 ± 2 | 14 ± 2 | γ-IFN response to peptides ([2]; Healthy donor HD 2, DRB1-0401): 1 ± 1; γ-IFN response to peptides ([2]; Healthy donor HD 3, DRB1-0401): 8 ± 2; γ-IFN response to peptides ([2]; Healthy donor HD 4, DRB1-0301): 19 ± 2; γ-IFN response to peptides ([2]; Healthy donor HD 5, DRB1-0301): 18 ± 2
phytohaemagglutinin [PHA, reference compound] | 98 ± 15 | 106 ± 18 | 62 ± 8 | 98 ± 14 | 48 ± 4 | 118 ± 18 | 78 ± 8 | 72 ± 10 | 58 ± 6 | 54 ± 12 | 62 ± 12 | 58 ± 14 | 52 ± 10 | 102 ± 10 | 86 ± 14 | 45 ± 8 | 126 ± 22 | 84 ± 10 | 58 ± 10 | 86 ± 14 | γ-IFN response to peptides [1, 25]: 48 +/− 2; γ-IFN response to peptides ([2]; Healthy donor HD 2, DRB1-0401): 66 ± 10; γ-IFN response to peptides ([2]; Healthy donor HD 3, DRB1-0401): 46 ± 6; γ-IFN response to peptides ([2]; Healthy donor HD 4, DRB1-0301): 74 ± 16; γ-IFN response to peptides ([2]; Healthy donor HD 5, DRB1-0301): 63 ± 10

Reference: patent US8501908B2, “Immunogenic peptides” (priority 2008, dated 2013)
